Source: article doi:10.1101/2025.03.03.641193, “Trihydroxybenzaldoximes are redox cycling inhibitors of ThDP-dependent DXP synthase” (bioRxiv, 2025)

Experiments:
R478A DXPS = target: T1, R478A DXPS (Escherichia coli, UniProt P77488, R478A); experiment: DXPS-IspC coupled assay, R478A variant; format: biochemical, E. coli
T1 construct: made in house
Procedure: In this experiment, pyruvate was varied from 12.5–500 μM and D-GAP was maintained at 2x Km.. […] Thus, it appears that EcR478A is not absolutely critical for binding 1.
(§1) Inhibitory activity of compounds against DXPS were monitored via a continuous spectrophotometric coupled assay with DXPS and IspC as previously described.[41],[42] Briefly, Reaction mixtures containing HEPES (100 mM, pH 8.0), MgCl2 (2 mM), NaCl (5 mM), ThDP (1 mM), BSA (1 mg/mL), DXPS (125–500 nM), IspC (1.7 μM), NADPH (160 μM), DMSO (5%, v/v), and inhibitor (0–200 μM) were preincubated at 25 °C (or chamber temperature 25–30 °C) for 5 min. Enzymatic reactions were initiated via the addition of 20 μL of a 10x substrate mix for a final well volume of 200 μL. Reactions were performed in triplicate unless otherwise noted. See the following sections for details and modifications.
(§2) When varying pyruvate (0–500 μM), GAP was maintained at 50 μM (3 mM for R478A). When varying GAP (0–500 μM), pyruvate was maintained at 500 μM. The following [DXPS] were used when varying 1: WT EcDXPS, R478A, H431A, D427A (200 nM), R99A (500 nM), WT DrDXPS, WT PaDXPS (150 nM). Analogs 3 and 4 were tested using WT EcDXPS (150 nM). Reactions were incubated and initiated as described above. Immediately following initiation, NADPH depletion was monitored at 340 nm at 25 °C for 7–10 min with a 14–20 second time interval. Initial velocities of DXP formation were determined from the linear portion of the NADPH decay. Initial velocities were arithmetically corrected for background for compound 4. Initial velocities were plotted vs. substrate concentration, and the data were fit to equation 1 (mixed model), 2 (competitive), or 3 (uncompetitive) based on the calculated α value and goodness of fit in GraphPad Prism. Reported standard errors of the mean for Kis are calculated from three replicates.

WT EcDXPS = target: T2, WT EcDXPS (Escherichia coli, UniProt P77488); experiment: Anaerobic apparent Ki, DXPS-IspC coupled assay; format: biochemical, E. coli
T2 construct: made in house
Procedure: as §1
Reaction components were brought into the anaerobic chamber and allowed to deoxygenate for ~2 hours. WT EcDXPS was used at 125 nM. When varying pyruvate (0–500 μM), GAP was maintained at 50 μM. When varying GAP (0–500 μM), pyruvate was maintained at 500 μM. Reactions were incubated and initiated as described above. Immediately following initiation, NADPH depletion was monitored at 340 nm at chamber temperature (25–30 °C) for 5 min with a ~17 second time interval. Initial velocities of DXP formation were determined as above, plotted vs. substrate concentration, and the data were fit to either equation 2, or 3 based on the calculated α value and goodness of fit in GraphPad Prism. Reported standard errors of the mean for Kis are calculated from three replicates.

R99A DXPS = target: T3, R99A DXPS (Escherichia coli, UniProt P77488, R99A); experiment: DXPS-IspC coupled assay, R99A variant; format: biochemical, E. coli
T3 construct: made in house
Procedure: To determine the role of active site network residues in the activity of oximes, inhibitory activity of 1 was assessed against EcD427A, EcH431A, and EcR99A by the DXPS-IspC coupled assay[41],[42] (Fig 4B, S3, Table S1). Ki determination was performed by varying [pyruvate] in order to assess the impact of residue substitutions on the uncompetitive mode of inhibition. […] (8.7 ± 1.2 μM, Fig S3, Table S1).
as §1, §2

DrDXPS = target: T4, DrDXPS (Deinococcus radiodurans, UniProt Q9RUB5); experiment: DXPS-IspC coupled assay, DrDXPS; format: biochemical, Deinoccocus radiodurans
T4 construct: made in house
Procedure: as §1, §2

[1] = NMR detection of redox state of 1; format: physicochemical
Procedure: NMR experiments were performed as previously described[16],[24] with the following modifications. Experiments were performed aerobically unless otherwise noted. Anaerobic experiments were performed in the anaerobic chamber up to the point of transfer to NMR tubes which were capped with rubber septa to exclude oxygen once removed from the chamber. […] Solutions were also prepared aerobically in the presence of ascorbate (5 mM) and CAT (0.25 mg/mL). Oxime 1 (500 μM) was then added and solutions were incubated at 4 °C for 20 min. After incubation, 600 μL of each solution were transferred to labeled NMR tubes. 1D ^1H-NMR and 1D ^1H detected H{^13C} and H3{^13C} spectra via a proton multiplicity filter, which selects for ^13C nuclei attached to an odd number of protons, were acquired on a Bruker Avance 600 MHz or a Bruker Avance NEO 600 MHz spectrometer (HEPES anaerobic and Tris anaerobic) equipped with a TCI cryogenic probe equipped with z-gradients with a cryo-cooled ^13C preamplifier, resulting in high sensitivity for ^13C detection. Spectra were acquired at 600 MHz (^1H) and 150 MHz (^13C), at 25 °C utilizing a 90° ^1H excitation pulse (optimized for maximum signal-to-noise per unit time), 128 scans/FID (^1H-NMR), 200 ms acquisition time/FID, and a 3s relaxation day between successive scans, or 64 scans/FID (^1H detected H{^13C} and H3{^13C}), 200 ms acquisition time/FID, and a 5s relaxation day between successive scans.

For `ON=Cc1cc(O)c(O)cc1O` [compound 1, 2,4,5-trihydroxybenzaldoxime], the Ki (R478A DXPS) was 15.7 ± 0.4 µM, the MOI varying pyruvate (R478A DXPS; EcR478A) was “uncompetitive” and the “Ki/Ki^wt” value (R478A DXPS; R478A, vary pyruvate, fold reduction in potency vs WT) was ~ 3. The “Ki (+O2)/ Ki (-O2)” value (WT EcDXPS; - O2) was ~ 10, the “MOI varying D-GAP” value (WT EcDXPS; anaerobic, WT EcDXPS) was “competitive” and the MOI varying pyruvate (WT EcDXPS; anaerobic, WT EcDXPS) was “uncompetitive”. For the same molecule, the “MOI varying D-GAP” value (R99A DXPS; EcR99A) was “competitive”, the MOI varying pyruvate (R99A DXPS; EcR99A) was “uncompetitive” and the Ki (R99A DXPS; Ki Vary Pyruvate, R99A, pyruvate 0–500 μM) was 30 ± 1 µM. For the same molecule, the Ki (R99A DXPS; Ki varying [D-GAP], R99A, GAP 0–500 μM, pyruvate 500 μM) was 8.7 ± 1.2 µM, the “Ki/Ki^wt” value (R99A DXPS; R99A, vary pyruvate, fold reduction in potency vs WT) was ~ 6 and the “fold reduction in potency relative to WT” value (R99A DXPS; R99A, varying [D-GAP]) was 4 fold. For the same molecule, the Ki (DrDXPS) was 2.8 ± 0.2 µM, the “MOI varying D-GAP” value (DrDXPS; DrDXPS) was “competitive” and the MOI varying pyruvate (DrDXPS; DrDXPS) was “uncompetitive”. The “Ki relative to EcDXPS” value (DrDXPS; DrDXPS, varying either pyruvate or D-GAP) was no more than 2 fold, the “redox state by 1H-NMR” value ([1]; 500 μM, HEPES 50 mM pH 8, aerobic) was “partially” and the “redox state by 1H-NMR” value ([1]; 500 μM, HEPES pH 8, aerobic, ascorbate 5 mM) was “reduced”. For the same molecule, the “redox state by 1H-NMR” value ([1]; 500 μM, HEPES pH 8, aerobic, catalase 0.25 mg/mL) was “mostly oxidized”, the “redox state by 1H-NMR” value ([1]; 500 μM, Tris 50 mM pH 8, aerobic) was “mostly” and the “redox state by 1H-NMR” value ([1]; 500 μM, acidic pH (MES pH 6.2), aerobic) was “mostly reduced”. For the same molecule, the “redox state by 1H-NMR” value ([1]; 500 μM, neutral and basic pH (phosphate pH 7, CHES pH 9), aerobic) was “oxidized”, the “redox state by 1H-NMR” value ([1]; 12.5 mM, HEPES 100 mM pH 8, aerobic) was “primarily in the reduced state” and the “redox state by 1H-NMR” value ([1]; anaerobic conditions) was “primarily in its reduced form”.
